These results are taken from US4835162A (priority 1987, dated 1989).

Entries after “also recorded” stand apart in the source; their conditions may differ. Where two headings read alike, the source gives them in different places.

As a reminder, the IC50 is the concentration that gives 50% inhibition. What is called Kd is the concentration at which binding is half-saturated.

For assay [1], the system named is rats. The settings on record: rat, in vivo.
For assay [2], the target named is nicotinic receptors (rat brain membranes). It is filed as binding. The conditions noted are these: read-out: 3H-Nicotine Binding IC50.
Assay [3] shares this target. The settings on record: read-out: 3H-MCC Binding IC50.
Assay [4] has as its system rats. The conditions noted are these: rat, in vivo. This is another data set of the same source.
Assay [5] deals with rats. Also on record: species or system Sprague-Dawley male rats; Blockade of (nicotine-induced prostration) EC50: unit not given here. The settings on record: rat, in vivo.
Assay [6] concerns rats. The assay is described as follows: animal or person. The settings on record: Rattus norvegicus, ip, 7 min, read-out: % Antagonism (seizures).
The test system of assay [7] is rats. The assay is described as follows: animal or person. The settings on record: Rattus norvegicus, iv, read-out: Antagonistic dose needed to completely block elevation in systolic blood pressure.
For assay [8], the system named is rats. The settings on record: rat, in vivo. This is another data set of the same source.
The target in assay [9] is nicotinic receptors (rat brain membranes). It is filed as binding. The conditions noted are these: for IC50: pH 7, read-out: [3H]-MCC IC50.
Assay [10] has the same target. It counts as binding. The conditions noted are these: for IC50: pH 7, read-out: [3H]-nicotine IC50; for Kd: read-out: Kd value in competition binding.
The subject of assay [11] is nicotinic receptors (rat brain membranes). It counts as binding.
In assay [12] the test system is rats. The conditions noted are these: rat, in vivo. The source holds these as a separate data set.

With `C[N+](C)(C)CCOC(=O)C1CCCCC1` [TMAE cyclohexylcarboxylate, choline ester of cyclohexylcarboxylic acid], in the assay on rats [1], the Seizures is reported as 1/8 and the “blockade of seizure activity” value was found to be 78%. The IC50 in [2] stood at 80 nM. For the same compound, the IC50 in assay [3] was found to be 50 nM. Moreover, the “% Antagonism (protection against nicotine mortality)” value in the assay on rats [4] is 66%. The “Blockade of (nicotine-induced prostration) EC50” value in the assay on rats [5] was determined as 10. Besides, in the assay on rats [6], the responders at 25 mg/kg was 78%.

For the compound `CN(C)CCOC(=S)Nc1ccccc1` [DMAE phenylthiocarbamate], the half-inhibitory concentration (IC50) in assay [2] was determined as 70000 nM; in assay [3], 20000 nM.

For `CN(C)CCOC(=O)c1ccccc1` [DMAE benzoate, dimethylaminoethyl benzoate], in the assay with rats [1], the “% Antagonism (seizures)” value stood at 45% and the Seizures is given as 5/9. The ED100 in the assay with rats [7] is 10 ± 25 mg/kg. In the assay on rats [5], the “Blockade of (nicotine-induced prostration) EC50” value came out at 100.

`CN1[C@@H](CC(=O)c2ccccc2)CCC[C@H]1CC(=O)c1ccccc1` [lobelanine, reference compound]: the IC50 in assay [2] amounted to 10 nM; in assay [3] it was 5 nM. The “Blockade of (nicotine-induced prostration) EC50” value with rats [5] came to 25.

With `CCN(CC)CCOC(=O)c1ccc(N)cc1` [procaine, reference compound], the “blockade of nicotine-induced prostration / antagonism, in words” value with rats [5] was “effectively block nicotine-induced prostration; also recorded: antagonists”.

In the case of `CC(=O)OCCN(C)C` [DMAE acetate], the “Prostration EC50” value in the assay with rats [8] is on record as more than 1000. For the same compound, the IC50 in assay [2] (pH 7.5) and in [3] (pH 7.5) was 50000 nM in each case.

As to `CN(C)CCOC(=O)Nc1ccccc1` [DMAE phenylcarbamate], the IC50 in assay [2] and in assay [3] was 100000 nM in each case.

As to `CNC(=O)OCCN(C)C` [DMAE methylcarbamate, dimethylaminoethylmethylcarbamate], the “Prostration EC50” value with rats [8] was 300. In the assay on rats [8], the “behavioral effect, in words” value was “moderate weakness in the hindlimbs and head”. In addition, the IC50 came out at 800 nM in [9], 500 nM in [10], 500 nM in assay [2] (pH 7.5) and 800 nM in assay [3] (pH 7.5).

For the compound `COc1ccc(CC2c3cc(OC)c(OC)cc3CCN2C)cc1OC` (stereo not drawn) [N--methyltetrahydro papavarine, reference compound], the half-maximal inhibitory concentration (IC50) worked out at 70000 nM in [2] and 80000 nM in [3].

In the case of `CNC(=O)OCCCN(C)C` [DMAP methylcarbamate], the “Prostration EC50” value in the assay with rats [8] was found to be 100. The results for the half-maximal inhibitory concentration (IC50) in assay [2] (pH 7.5) and in assay [3] (pH 7.5) were 200 nM and 50 nM, respectively.

Turning to `[3H]C([3H])([3H])[N+](C)(C)CCOC(=O)NC` [[^3 H]-MCC, [^3 H]-methylcarbamyl choline], the “displaceability of [3H]-MCC binding by muscarinic antagonists” value in assay [9] is “not [^3 H]-MCC binding, is displaceable by low concentrations of muscarinic antagonists; also recorded: not displaceable by muscarinic cholinergic antagonists”. Further, in assay [11], the “Bmax of [3H]-MCC binding” value is listed as 4.0×10^-14 moles/mg protein; the “Scatchard Kd and Bmax with unlabeled (-)-nicotine replacing MCC, in words” value is “comparable Kd and Bmax values”. Moreover, in [11] (brain membranes, pH 7), the “rate constant for association, [3H]-MCC” value came out at 300000 M⁻¹ s⁻¹ and the “rate constant for dissociation, [3H]-MCC” value is 0.001 s⁻¹. Also, in assay [11] (read-out: Kd (Hill binding constant) of [3H]-MCC), the Kd is 0.9 nM. In [11] (read-out: Kd from rate constants, [3H]-MCC), the Kd amounted to 3.3 nM. In assay [11] (read-out: Kd, Scatchard analysis of [3H]-MCC binding), the Kd worked out at 1.1 nM.

Regarding `C[N+](C)(C)CCCCCC[N+](C)(C)C` [hexamethonium], in [10], the IC50 is more than 100000 nM and the Kd was more than 100000 nM.

Regarding `CN(C)CCOC(N)=O` [DMAE carbamate], in the assay on rats [8], the “Prostration EC50” value came to 400. The “behavioral effect, in words” value in the assay on rats [8] is on record as “only a similar effect”. Besides, the IC50 in assay [9], in assay [10], in assay [2] (pH 7.5) and in assay [3] (pH 7.5) was 10000 nM in each case.

Take `CN(C)CCOC(=O)c1cccnc1` [DMAE nicotinate]: in [2], the IC50 is 200 nM. Moreover, the IC50 in assay [3] was determined as 200 nM. For the same compound, in the assay with rats [5], the “Blockade of (nicotine-induced prostration) EC50” value is 50; the “blockade of nicotine-induced prostration / antagonism, in words” value was “next in effectiveness and of comparable activity; also recorded: antagonistic to the nicotine-induced prostration”.

Turning to `CN1C(CC(O)c2ccccc2)CCCC1CC(O)c1ccccc1` (stereo not drawn) [lobelanidine, reference compound], the IC50 was determined as 20 nM in [2] and 5 nM in assay [3]. For the same compound, the “Blockade of (nicotine-induced prostration) EC50” value in the assay with rats [5] was 25.

`CNC(=O)Oc1ccc2c(c1)[C@]1(C)CCN(C)[C@@H]1N2C` [physostigmin, reference compound]: the “blockade of nicotine-induced prostration / antagonism, in words” value in the assay on rats [5] is “inactive”.

As for N--benzylpiperidyl-methylcarbamate, the IC50 in [2] and in [3] was more than 100000 nM each time.

As for `CCN(CC)CC(=O)Nc1c(C)cccc1C` [lidocaine, reference compound], the “blockade of nicotine-induced prostration / antagonism, in words” value in the assay on rats [5] is “inactive”.

Take `C[N+](C)(C)CCOC(=O)Cc1ccccc1` [TMAE phenylacetate]: in assay [2], the IC50 was determined as 2000 nM. The IC50 in assay [3] was found to be 300 nM. Further, in the assay with rats [5], the “Blockade of (nicotine-induced prostration) EC50” value is given as 100; the “blockade of nicotine-induced prostration / antagonism, in words” value is “next in effectiveness and of comparable activity”.

On to `C[N+](C)(C)CCOC(N)=O` [carbamylcholine], for which the “Prostration EC50” value with rats [8] is listed as 100.

On to `CN(C)CCOC(=O)CCC(=O)OCCN(C)C` [DMAE succinate], for which the “Prostration EC50” value in the assay with rats [8] came to 1000. Further, the IC50 is 50000 nM in assay [2] (pH 7.5) and 60000 nM in assay [3] (pH 7.5).

As for `CN(C)c1cccnc1` [3-dimethylaminopyridine], in the assay on rats [8], the “agonist or inactive on prostration, in words” value is reported as “agonists”.

On to `CN1[C@@H]2CC[C@H]1C[C@@H](OC(=O)C(CO)c1ccccc1)C2` (stereo partly drawn) [atropine, reference compound], for which the Seizures in the assay with rats [1] was 6/6. The “protection against nicotine mortality, in words” value with rats [4] is listed as “ineffective”. The “blockade of nicotine-induced prostration / antagonism, in words” value with rats [5] was “inactive”. Besides, the responders at 25 mg/kg in the assay with rats [6] came to 0%.

Turning to `CCCN1CCCC1c1cccnc1` (stereo not drawn) [N'--propyl nornicotine, reference compound], the “Prostration EC50” value in the assay on rats [8] is recorded as 80. Besides, the IC50 in assay [9] worked out at 1000 nM; in assay [10], 600 nM; in assay [2] (pH 7.5) it was 600 nM; in assay [3] (pH 7.5), 1000 nM. Also, the “decrease in affinity relative to nicotine” value in assay [10] is recorded as 200 fold.

Turning to `C[N+](C)(C)CCOC(=S)Nc1ccccc1` [TMAE phenylthiocarbamate], in [2], the half-maximal inhibitory concentration (IC50) was 500 nM. Further, in the assay on rats [7], the ED100 worked out at 4 ± 0.8 mg/kg. Further, the IC50 in assay [3] was found to be 500 nM. Further, in the assay on rats [4], the “% Antagonism (protection against nicotine mortality)” value came out at 63% and the Mortality is listed as 3/10. Also, in the assay with rats [5], the “Blockade of (nicotine-induced prostration) EC50” value stood at 50; the “blockade of nicotine-induced prostration / antagonism, in words” value is “next in effectiveness and of comparable activity”.

Consider `CNC(=O)OC1CCN(Cc2ccccc2)CC1` [N--benzyl-4-piperdyl methylcarbamate], for which the IC50 in assay [2] and in [3] was more than 100000 nM in each case.

Turning to `O=c1cccc2n1C[C@@H]1CNC[C@H]2C1` [cytisine, reference compound], in the assay on rats [8], the “Prostration EC50” value is listed as 2. The IC50 came out at 6 nM in assay [2] (pH 7.5) and 0.1 nM in assay [3] (pH 7.5).

On to α-bungarotoxin, for which the concentration for half-maximal inhibition (IC50) in assay [9] was more than 100000 nM. In assay [10], the IC50 was more than 100000 nM and the Kd is more than 100000 nM.

As to `CN(C)C(=O)Oc1cccc([N+](C)(C)C)c1` [prostigmin, reference compound], in the assay with rats [5], the “blockade of nicotine-induced prostration / antagonism, in words” value was “inactive”.

As to `CN(C)CCOC(=O)C1CCCCC1` [DMAE cyclohexylcarboxylate, dimethylaminoethyl cyclohexylcarboxylate], in the assay with rats [1], the “% Antagonism (seizures)” value was found to be 50%; the Seizures is listed as 4/8; the “seizures, in words” value is reported as “about half of the rats exhibited seizures”. In addition, the IC50 in assay [2] turned out to be 2000 nM. The IC50 in [3] worked out at 4000 nM. The “Blockade of (nicotine-induced prostration) EC50” value with rats [5] was 100.

With `CCN1CCCC1c1cccnc1` (stereo not drawn) [N'--ethyl nornicotine, reference compound], the “Prostration EC50” value in the assay with rats [8] amounted to 20. Further, the IC50 is 100 nM in assay [9], 30 nM in assay [10], 30 nM in assay [2] (pH 7.5) and 100 nM in assay [3] (pH 7.5). Besides, the “decrease in affinity relative to nicotine” value in assay [10] came to 3 fold.

As for `C[N+](C)(C)CCOC(=O)CCC(=O)OCC[N+](C)(C)C` [TMAE succinate, succinylcholine], the “Prostration EC50” value with rats [8] came to 50.

For the compound `Nc1c2c(nc3ccccc13)CCCC2` [9-aminotetrahydroacridine, reference compound], in the assay on rats [5], the “Blockade of (nicotine-induced prostration) EC50” value was found to be 200.

With `CN1CCCC(OC(=O)c2ccccc2)C1` (stereo not drawn) [N--methyl-3-piperdyl benzoate], the IC50 in [2] came to 30000 nM; in assay [3], 20000 nM. The “Blockade of (nicotine-induced prostration) EC50” value in the assay on rats [5] is on record as 300.

Take `CC(=O)OCC[N+](C)(C)C` [acetylcholine]: the “Prostration EC50” value with rats [8] turned out to be 300. Besides, the “psychotropic action (prostration), in words” value in the assay with rats [12] was “inactive”.
